According to PubChem BioAssay (NCI):
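96-well plates; 48 h exposure; 5 concentrations. Endpoints by linear interpolation between flanking doses. Not reached: highest tested concentration assigned. GI50 marks 50% less growth. TGI is the concentration that stops growth completely.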

Legend:
Experiment in all cases: growth of human tumour cells (NCI), 48 h
786-0 renal = system: 786-0 renal
BT-549 breast = system: BT-549 breast
K-562 leukemia = system: K-562 leukemia
MOLT-4 leukemia = system: MOLT-4 leukemia
SF-295 CNS = system: SF-295 CNS
SF-539 CNS = system: SF-539 CNS
SK-MEL-2 melanoma = system: SK-MEL-2 melanoma
SK-MEL-5 melanoma = system: SK-MEL-5 melanoma
SW-620 colon = system: SW-620 colon
TK-10 renal = system: TK-10 renal

SMILES | GI50 (786-0 renal) [µM] | TGI (786-0 renal) [µM] | GI50 (BT-549 breast) [µM] | TGI (BT-549 breast) [µM] | GI50 (K-562 leukemia) [µM] | TGI (K-562 leukemia) [µM] | TGI (MOLT-4 leukemia) [µM] | GI50 (SF-295 CNS) [µM] | TGI (SF-295 CNS) [µM] | GI50 (SF-539 CNS) [µM] | TGI (SF-539 CNS) [µM] | GI50 (SK-MEL-2 melanoma) [µM] | TGI (SK-MEL-2 melanoma) [µM] | GI50 (SK-MEL-5 melanoma) [µM] | TGI (SK-MEL-5 melanoma) [µM] | GI50 (SW-620 colon) [µM] | TGI (SW-620 colon) [µM] | GI50 (TK-10 renal) [µM] | TGI (TK-10 renal) [µM] | GI50 (MOLT-4 leukemia) [µM]
COc1ccc2c3c(c4ccccc4cc13)C(=O)N(CCN(C)CCN)C2=O | 0.0388 | 0.7 | 0.329 | 1.84 | 0.204 | 1.32 | 0.301 | 0.0437 | 1.03 | 0.186 | 1.35 | 0.887 | 18.5 | 0.186 | 1.28 | 0.0515 | 1.32 | 0.13 | 1.31 | –
O=C1NC(=O)C(c2ccc(Cl)cc2)=C1Nc1ccc(Cl)c(C(=O)O)c1 | > 25 | > 25 | > 25 | > 25 | > 25 | > 25 | > 25 | > 25 | > 25 | > 25 | > 25 | > 25 | > 25 | > 25 | > 25 | > 25 | > 25 | > 25 | > 25 | > 25
O=C(NCCCCCCNC(=O)n1cc(F)c(=O)[nH]c1=O)NCCCOCCOCCOCCOCCOCCOCCOCCOCCOCCOCCOCCOCCOCCOCCOCCOCCOCCOCCOCCOCCOCCCNC(=O)C(O)C(O)C(OC1OC(CO)C(O)C(O)C1O)C(O)CO (stereo not drawn) | – | > 100 | – | > 100 | – | > 100 | > 100 | – | > 100 | – | 22.7 | – | > 100 | – | > 100 | – | > 100 | – | > 100 | –
C[n+]1c2ccccc2c(Nc2ccc(NS(=O)(=O)CCCCN=C(N)N)cc2)c2ccc(N)cc21 | 3.8 | > 100 | 35.2 | > 100 | 2.6 | > 100 | – | 0.0785 | > 100 | 3.37 | > 100 | 18.5 | 50.6 | 1.2 | 15.2 | 4.88 | > 100 | 6.47 | 58.3 | 0.0212
COc1ccc2nc(NCN3C(=O)c4ccccc4C3=O)sc2c1 | – | > 100 | – | > 100 | – | > 100 | > 100 | – | > 100 | – | > 100 | – | > 100 | – | > 100 | – | > 100 | – | > 100 | –
CCCCOC(=O)c1ccc(NC(=O)CCl)cc1 | 2.04 | 3.74 | 2.2 | 7.7 | 2.98 | > 100 | 6.21 | 10.5 | 23.1 | 1.7 | 3.18 | 4.89 | 15.9 | 1.55 | 3.04 | 1.59 | 3.38 | 1.91 | 3.85 | 1.82
COc1ccc(SC2c3ccc(C)cc3Oc3nc(N)c(C#N)c(N)c32)cc1 (stereo not drawn) | 1.65 | 3.01 | 1.56 | 2.9 | 2.66 | 8.44 | 5.61 | 1.55 | 2.89 | 1.64 | 3 | 1.72 | 3.59 | 1.77 | 3.15 | 1.95 | 4.08 | 1.74 | 3.12 | 1.96
